Values of other authors in patent US10736889B2, “Method of treating dyskinesia” (Rutgers, The State University of New Jersey, priority 2011, dated 2020).
Like-named read-outs stand apart in the source and are kept apart here.

Experiments:
[1] = target: κ-opioid receptors (Homo sapiens, UniProt P41145); details: for Ki: read-out: Ki for κ-opioid receptors; for IC50: read-out: IC50 for κ-opioid receptors
[2] = target: μ-opioid receptors (Homo sapiens, UniProt P35372); details: for Ki: read-out: Ki for μ-opioid receptors
Sequence of μ-opioid receptors (P35372 whole entry): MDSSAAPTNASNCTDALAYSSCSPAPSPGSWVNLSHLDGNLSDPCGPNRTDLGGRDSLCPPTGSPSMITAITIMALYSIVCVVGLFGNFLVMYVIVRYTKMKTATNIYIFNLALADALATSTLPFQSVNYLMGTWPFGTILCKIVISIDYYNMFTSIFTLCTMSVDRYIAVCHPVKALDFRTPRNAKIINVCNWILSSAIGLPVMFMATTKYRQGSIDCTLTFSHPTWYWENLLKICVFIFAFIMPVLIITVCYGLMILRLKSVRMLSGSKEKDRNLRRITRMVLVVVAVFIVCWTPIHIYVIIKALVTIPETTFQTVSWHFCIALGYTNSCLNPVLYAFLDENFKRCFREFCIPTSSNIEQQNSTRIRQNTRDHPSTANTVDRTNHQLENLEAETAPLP

[3] = target: δ-opioid receptors (Homo sapiens, UniProt P41143); details: for Ki: read-out: Ki for δ-opioid receptors
Sequence of δ-opioid receptors (P41143 whole entry): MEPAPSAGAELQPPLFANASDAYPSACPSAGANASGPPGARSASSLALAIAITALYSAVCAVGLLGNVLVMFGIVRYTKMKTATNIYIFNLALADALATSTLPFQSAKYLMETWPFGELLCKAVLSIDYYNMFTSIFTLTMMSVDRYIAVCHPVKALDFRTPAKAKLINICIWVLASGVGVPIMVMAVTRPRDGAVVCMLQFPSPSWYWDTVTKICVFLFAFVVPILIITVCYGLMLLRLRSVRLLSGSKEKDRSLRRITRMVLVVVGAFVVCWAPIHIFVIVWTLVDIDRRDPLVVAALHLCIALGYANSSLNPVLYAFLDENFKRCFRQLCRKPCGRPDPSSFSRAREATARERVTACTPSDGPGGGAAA

[4] = test system: LID; details: variable effects in monkeys and humans
[5] = test system: LID; details: only drug available
[6] = test system: LID; details: in vivo
[7] = test system: hemiparkinsonian marmoset monkeys; details: lower doses
[8] = test system: 6-hydroxydopamine-lesioned rat model
[9] = compared with Nalbuphine itself

Sequence of κ-opioid receptors (P41145 whole entry): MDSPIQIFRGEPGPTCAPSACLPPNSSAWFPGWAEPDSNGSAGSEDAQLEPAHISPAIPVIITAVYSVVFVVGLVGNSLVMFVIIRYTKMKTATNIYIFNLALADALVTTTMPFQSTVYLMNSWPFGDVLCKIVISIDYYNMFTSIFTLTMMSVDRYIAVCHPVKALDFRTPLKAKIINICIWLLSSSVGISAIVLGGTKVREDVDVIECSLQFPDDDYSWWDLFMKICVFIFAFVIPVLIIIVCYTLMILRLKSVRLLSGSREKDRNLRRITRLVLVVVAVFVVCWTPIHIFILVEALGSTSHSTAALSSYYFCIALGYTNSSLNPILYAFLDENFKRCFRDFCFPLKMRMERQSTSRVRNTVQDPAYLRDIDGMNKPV

Compound: CC(C)=CCN1CC[C@@]2(C)c3cc(O)ccc3C[C@@H]1C2C (stereo in doubt) [Pentazocine]
- Ki [1]: ~2.2 nM

Compound: C=CCN1CCC2(C)c3cc(O)ccc3CC1C2C (stereo not shown) [Alazocine]
- Ki [2]: ~3 nM
- Ki [1]: ~4.7 nM
- Ki [3]: ~15 nM

Compound: CNCC[C@@H](Oc1ccccc1C)c1ccccc1 [Atomoxetine]
- IC50 [2]: ~4190 nM
- IC50 [1]: ~4380 nM
- IC50 ([3]; read-out: IC50 for δ-opioid receptors): < 5000 nM

Compound: CCC12CCN(CC3(O)CC3)C(Cc3ccc(O)cc31)C2(C)C (stereo not shown) [Bremazocine]
- IC50 [1]: ~0.16 nM
- Ki [3]: < 1000 nM

Compound: Oc1ccc2c(c1)[C@@]13CCCC[C@@]1(O)[C@@H](C2)N(CC1CCC1)CC3 [Butorphanol]
- Ki [1]: ~0.12 nM
- Ki [3]: ~12 nM

Compound: C=CCN1CC[C@]23c4c5ccc(OC)c4O[C@H]2[C@@H](O)C=C[C@H]3[C@H]1C5 [Nalodeine]
- Ki [3]: < 1000 nM

Compound: C=CCN1CC[C@]23c4c5ccc(O)c4O[C@H]2C(=O)CC[C@@]3(O)[C@H]1C5 [Naloxone]
- LID [4]: no change, increases or decreases

Compound: O=C1CC[C@@]2(O)[C@H]3Cc4ccc(O)c5c4[C@@]2(CCN3CC2CC2)[C@H]1O5 [Naltrexone]
- LID [4]: no change, increases or decreases

Compound: Oc1ccc2c3c1O[C@H]1c4oc5ccccc5c4C[C@@]4(O)[C@@H](C2)N(CC2CC2)CC[C@]314 [Naltriben]
- Ki [2]: ~19.8 nM
- Ki [1]: ~82.8 nM

Compound: NC(=O)c1ccc2c(c1O)[C@]13CCN(CC4CC4)C(C2)[C@]1(O)CCC(=O)C3 [Samidorphan]
- Ki [2]: ~0.052 nM
- Ki [1]: ~0.23 nM
- Ki [3]: ~2.6 nM

Compound: Cl.NC12CC3CC(CC(C3)C1)C2 [amantadine, 1-adamantanamine hydrochloride]
- LID [5]: modestly reduce LID

Compound: COc1cccc2c1[C@]13CCN(CC4CC4)[C@H](C2)[C@]1(OC)CCC(=O)C3 [cyprodime]
- peak-dose LID [6]: significantly reduces

Compound: Oc1ccc2c3c1O[C@H]1c4[nH]c5ccccc5c4C[C@@]4(O)[C@@H](C2)N(CC2CC2)CC[C@]314 [naltrindole]
- levodopa-induced rotations [7]: reduce levodopa-induced rotations

Compound: Oc1ccc2c3c1O[C@H]1c4[nH]c5c(c4C[C@@]4(O)[C@@H](C2)N(CC2CC2)CC[C@]314)C[C@@]1(O)[C@H]2Cc3ccc(O)c4c3[C@@]1(CCN2CC1CC1)[C@H]5O4 [nor-BNI]
- levodopa-induced hyperkinesias [8]: moderates

Compound: O=C(CCCCCCCCC(=O)Oc1ccc2c3c1O[C@H]1[C@@H](O)CC[C@@]4(O)[C@@H](C2)N(CC2CCC2)CC[C@]314)Oc1ccc2c3c1O[C@H]1[C@@H](O)CC[C@@]4(O)[C@@H](C2)N(CC2CCC2)CC[C@]314 [sebacoyl di-Nalbuphine ester]
- bioavailability [9]: improved over that of Nalbuphine itself

Compound: N-allyl-normorphine [Nalorphine]
- Ki [3]: ~6.33 nM
